We go through two compounds from patent publication US20220387602A1, “BIFUNCTIONAL DEGRADERS AND THEIR METHODS OF USE” (NOVARTIS AG, priority 2019, published 2022).

Common to all, as to assay type: cell-based
One test concerns the target T1, EPHA4 (Homo sapiens, UniProt P54764).
T1 construct: EGFP (after a Leu that replaces the STOP codon); expressed in transfected cells; host or cells: HEK293A (Invitrogen R70507), lentiviral transduction
In words: EPHA4-GFP protein abundance flow cytometry assay in HEK293A. The conditions noted are these: for EPHA4 Amax: % protein remaining at the concentration of maximum degradation; for DC50: HEK293A EPHA4-GFP sensor cells, 24 h. The protocol: (§1) Degradation of BTK, CSK, ABL2, EPHA4 and YES1 was measured in HEK293A cells (Invitrogen R70507) expressing either BTK-GFP and RFP, CSK-GFP and mCherry, GFP-ABL2 and mCherry, EPHA4-GFP and mCherry, or YES1-GFP and mCherry from a stably integrated bicistronic BTK-GFP-iresRFP, CSK-GFP-CHYSEL-mCherry, GFP-ABL2-CHYSEL-mCherry, EPHA4-GFP-CHYSEL-mCherry, or YES1-GFP-CHYSEL-mCherry construct, respectively. Reduction of the GFP signal measured by flow cytometry served as readout for BTK, CSK, ABL2, EPHA4 and YES1 degradation after degrader treatment.
(§2) 293A BTK-GFP-Ires-RFP, CSK-GFP-CHYSEL-mCherry, GFP-ABL2-CHYSEL-mCherry, EPHA4-GFP-CHYSEL-mCherry, or YES1-GFP-CHYSEL-mCherry sensor cells were generated by lentiviral vector transduction using the pLenti6-BTK-GFP-Ires-RFP, pLenti6-mCherryCHYSEL-EGFP-ABL2, pLenti6-CSK-GFP-CHYSEL-mCherry, pLenti6-EPHA4-GFP-CHYSEL-mCherry or pLenti6-YES1-GFP-CHYSEL-mCherry sensor construct described before. Lentiviral particles were produced in HEK293FT cells (Invitrogen R70007) by co-transfection of 500 ng pLenti6-BTK-GFP-Ires-RFP or pLenti6-IKZF3-GFP-Ires-RFP, 500 ng delta8.71 and 200 ng pVSVG diluted in 100 μL OptiMEM serum free medium (Invitrogen #11058-021) that was mixed after 5 min preincubation with 3 μL of Lipofectamine2000 (Invitrogen #11668-019) in 97 μL OptiMEM serum free medium. The mix was incubated for another 20 min at RT and then added on 1 mL of a freshly prepared suspension of HEK293FT cells in a well of a 6-well plate (concentration 1.2×10^6 cells/mL). 1 day after transfection, the medium was replaced with 1.5 mL of complete growth medium (DMEM high Glucose+10% FCS+1% L-Glutamine+1% NEAA+1% NaPyr.). 48 h post transfection supernatant containing viral transducing particles was collected and frozen at −80° C.
(§3) 2 days before transduction with viral particles 1×10^5 HEK293A cells (Invitrogen R70507) were seeded in 2 mL growth medium in a well of a 6-well plate. Infection was performed with 90 μL of collected supernatant containing viral transducing particles in 1 mL medium including 8 µg/mL polybrene. 24 h post infection, stably transfected cells were selected with blasticidin at a concentration of 8 μg/mL referred to as stable HEK293A sensor cells.
(§4) Stable HEK293A sensor cells were maintained in complete growth medium (DMEM high Glucose+10% FCS+1% L-Glutamine+1% NEAA+1% NaPyr.) with passaging performed twice per week. […] GFP and RFP are read in the channels called FITC and PE, respectively.
(§5) Concentration response curves plotting relative reduction of the GFP signal (measured by flow cytometry) versus 10 compound concentrations (starting concentration 10 μM, 3 fold dilution steps) of the compounds allowed generation of DC50 values.
A general note: Flow cytometry measures light scatter and fluorescence of single cells or particles in a stream.

For the next test, the target named is T2, YES1 (Homo sapiens, UniProt P07947).
T2 construct: EGFP (after a Leu that replaces the STOP codon); expressed in transfected cells; host or cells: HEK293A (Invitrogen R70507), lentiviral transduction
In words: YES1-GFP protein abundance flow cytometry assay in HEK293A. Conditions: for YES1 Amax: % protein remaining at the concentration of maximum degradation; for DC50: HEK293A YES1-GFP sensor cells, 24 h. The protocol:
as §1, §2, §3, §4, §5

A further test concerns the target T3, BTK (Homo sapiens, UniProt Q06187).
T3 construct: the BTK open reading frame (ORF) was first shuttled from a pcDNA-DEST40-BTK vector; expressed in transfected cells; host or cells: HEK293A (Invitrogen R70507), lentiviral transduction, blasticidin selection
In words: BTK-GFP protein abundance flow cytometry assay in HEK293A. The conditions noted are these: 24 h; for BTK degradation Amax: % protein remaining at the concentration at which maximum degradation is seen, HEK293A; for DC50: concentration at which 50% maximal degradation was observed, HEK293A BTK-GFP sensor cells. In outline:
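HEK293A cells stably expressing bicistronic BTK-GFP-iresRFP were treated 24 h at 37° C with 10-point 1:3 dilutions from 10 μM, DMSO at 0.1%. GFP was read by flow cytometry as median of 5,000 single cells, scaled between RFP-only cells (0%) and DMSO controls (100%). DC50 = concentration at 50% degradation; Amax = % protein remaining at maximal degradation.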

T1 sequence (P54764 20-986, species assumed): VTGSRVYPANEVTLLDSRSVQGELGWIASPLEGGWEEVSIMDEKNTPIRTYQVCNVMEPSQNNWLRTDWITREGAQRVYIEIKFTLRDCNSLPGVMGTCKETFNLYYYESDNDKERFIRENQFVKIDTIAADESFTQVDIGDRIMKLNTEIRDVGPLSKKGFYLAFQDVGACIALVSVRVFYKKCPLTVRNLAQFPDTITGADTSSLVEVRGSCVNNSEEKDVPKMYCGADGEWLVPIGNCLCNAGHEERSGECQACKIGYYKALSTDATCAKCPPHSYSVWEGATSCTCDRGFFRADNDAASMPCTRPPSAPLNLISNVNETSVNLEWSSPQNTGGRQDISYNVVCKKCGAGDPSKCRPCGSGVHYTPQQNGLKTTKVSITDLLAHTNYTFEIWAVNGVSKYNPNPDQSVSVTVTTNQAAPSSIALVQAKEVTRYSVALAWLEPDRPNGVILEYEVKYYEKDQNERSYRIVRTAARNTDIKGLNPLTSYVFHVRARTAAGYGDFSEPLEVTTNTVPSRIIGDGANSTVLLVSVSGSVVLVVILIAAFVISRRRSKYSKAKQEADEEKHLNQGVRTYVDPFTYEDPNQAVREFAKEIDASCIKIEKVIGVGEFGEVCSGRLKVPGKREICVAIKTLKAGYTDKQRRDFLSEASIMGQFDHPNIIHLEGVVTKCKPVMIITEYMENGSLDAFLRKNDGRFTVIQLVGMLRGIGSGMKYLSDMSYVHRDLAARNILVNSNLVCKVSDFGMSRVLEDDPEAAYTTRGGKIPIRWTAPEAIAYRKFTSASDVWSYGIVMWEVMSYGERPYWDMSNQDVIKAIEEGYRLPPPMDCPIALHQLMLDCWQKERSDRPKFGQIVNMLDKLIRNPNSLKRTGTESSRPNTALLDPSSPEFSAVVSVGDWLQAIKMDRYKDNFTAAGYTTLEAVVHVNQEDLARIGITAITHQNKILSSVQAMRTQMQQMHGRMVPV
T2 sequence (P07947 whole entry, looked up): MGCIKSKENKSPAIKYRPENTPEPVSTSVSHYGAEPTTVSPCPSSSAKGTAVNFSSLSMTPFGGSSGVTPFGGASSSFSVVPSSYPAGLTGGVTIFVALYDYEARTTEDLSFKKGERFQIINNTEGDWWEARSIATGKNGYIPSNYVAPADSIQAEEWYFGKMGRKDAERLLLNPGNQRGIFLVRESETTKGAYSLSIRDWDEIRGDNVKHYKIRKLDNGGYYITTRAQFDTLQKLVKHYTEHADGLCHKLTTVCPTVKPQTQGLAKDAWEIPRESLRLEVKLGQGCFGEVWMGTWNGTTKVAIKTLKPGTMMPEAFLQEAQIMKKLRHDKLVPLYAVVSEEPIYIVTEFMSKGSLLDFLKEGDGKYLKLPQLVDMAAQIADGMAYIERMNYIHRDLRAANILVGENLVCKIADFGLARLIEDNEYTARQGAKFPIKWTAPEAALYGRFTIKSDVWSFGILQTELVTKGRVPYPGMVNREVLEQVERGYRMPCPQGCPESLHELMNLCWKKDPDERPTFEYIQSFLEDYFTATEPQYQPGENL
T3 sequence (Q06187 whole entry): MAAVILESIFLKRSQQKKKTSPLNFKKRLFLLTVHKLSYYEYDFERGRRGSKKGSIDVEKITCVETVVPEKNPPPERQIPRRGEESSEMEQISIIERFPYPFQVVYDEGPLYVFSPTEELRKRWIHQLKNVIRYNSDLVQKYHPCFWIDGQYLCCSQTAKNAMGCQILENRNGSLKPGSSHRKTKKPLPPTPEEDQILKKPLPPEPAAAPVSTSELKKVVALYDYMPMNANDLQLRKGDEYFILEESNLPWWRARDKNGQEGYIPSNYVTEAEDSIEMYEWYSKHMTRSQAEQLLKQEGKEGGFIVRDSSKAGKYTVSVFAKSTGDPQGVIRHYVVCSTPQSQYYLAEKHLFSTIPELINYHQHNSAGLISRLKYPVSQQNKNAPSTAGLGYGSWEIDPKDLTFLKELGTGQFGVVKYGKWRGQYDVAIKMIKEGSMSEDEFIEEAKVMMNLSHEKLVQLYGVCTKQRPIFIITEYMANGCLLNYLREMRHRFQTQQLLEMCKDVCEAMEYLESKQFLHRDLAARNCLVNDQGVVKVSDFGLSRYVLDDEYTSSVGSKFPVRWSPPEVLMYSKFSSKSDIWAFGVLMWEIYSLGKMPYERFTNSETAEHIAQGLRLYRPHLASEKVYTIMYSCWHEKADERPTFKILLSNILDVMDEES

On to `COc1ccc(C(=O)N2CCC3(CCN(C(=O)CCCCCCCN4CCN(c5cc(Nc6ncc(C(=O)Nc7c(C)cccc7Cl)s6)nc(C)n5)CC4)CC3)CC2)cc1N1CCC(=O)NC1=O` [compound 06, N-(2-chloro-6-methylphenyl)-2-((6-(4-(8-(9-(3-(2,4-dioxotetrahydropyrimidin-1(2H)-yl)-4-methoxybenzoyl)-3,9-diazaspiro[5.5]undecan-3-yl)-8-oxooctyl)piperazin-1-yl)-2-methylpyrimidin-4-yl)amino)thiazole-5-carboxamide], for which, on EPHA4, the “EPHA4 Amax” value came out at 9% and the DC50 stood at 4 nM. For the same compound, on YES1, the “YES1 Amax” value is reported as 4% and the DC50 worked out at 9 nM. Besides, at BTK, the “BTK degradation Amax” value is 2.1% and the DC50 amounted to 4.7 nM.

Regarding `COc1ccc(C(=O)N2CCC3(CCN(C(=O)CN4CCN(c5cc(Nc6ncc(C(=O)Nc7c(C)cccc7Cl)s6)nc(C)n5)CC4)CC3)CC2)cc1N1CCC(=O)NC1=O` [compound 07, N-(2-chloro-6-methylphenyl)-2-((6-(4-(2-(9-(3-(2,4-dioxotetrahydropyrimidin-1(2H)-yl)-4-methoxybenzoyl)-3,9-diazaspiro[5.5]undecan-3-yl)-2-oxoethyl)piperazin-1-yl)-2-methylpyrimidin-4-yl)amino)thiazole-5-carboxamide], at EPHA4, the “EPHA4 Amax” value is reported as 9% and the DC50 worked out at 83 nM. At YES1, the “YES1 Amax” value is on record as 11% and the DC50 amounted to 124 nM. Moreover, at BTK, the “BTK degradation Amax” value is listed as 0.9% and the DC50 worked out at 9.3 nM.
